Test results published in US20100227827A1, “METHOD OF INCREASING TRYPTOPHAN AND NICOTINAMIDE LEVELS IN VIVO” (priority 2006, published 2010).

Experiments:
[1] = Repeat daily oral doses, quinic acid analyzed in serum by HPLC; format: in vivo, human
Description: Trial design for the clinical evaluation of Aqua Bimini™ (quinic acid ammonium chelate) was carried out at Lund University beginning Apr. 28, 2006. Two Subjects identity code protected as HL and RP received Aqua Bimini™ at 1500 mg/day and 3000 mg/day, respectively for 4 consecutive weeks (36 days). Repeat serum and urine samples were collected throughout the trial period and then pooled into groups for analysis as 6 weeks before (baseline), 4 weeks of intervention (treatment, 36 days) and 8 months dry-out (no treatment).
Two human volunteers subject two and subject one ingested daily doses of 1500 mg per day or 3000 mg per day and serum samples collected on May 8, May 15, May 18, May 23, May 29, and June 1.
These samples were each analyzed for quinic acid content in 200 μl serum after precipitation with 2 M trichloroacetic acid (TCA). The column used for these experiments was a C18 80×4.6 mm. The mobile phase was 0.2% trifluoroacetic (TFA):methanol 85:15. The UV detector was set at 215 nm and quinic acid eluted with a retention time of 1.40-1.5 min. The sensitivity for detection of this method was about 1 mg quinic acid /ml serum or a detectable dose of 70 mg/kg in humans not 21 to 42 mg/kg as used herein in this study. Thus this protocol could assess if the quinic acid levels in serum would accumulate after repeated daily administration during a period of 4-5 weeks.

serum protein thiols = assay: Serum protein thiols as in vivo anti-oxidant indicator; set-up: species or system human; conditions: for Increase in serum protein thiols (ratio): after to before (baseline)
Excerpt: The following detailed description was designed to standardize the estimation of the in vivo level of serum protein thiols that have been used previously to estimate DNA repair capacity. When a blood sample is collected and the serum isolated, then the level of serum protein thiols is an estimate of the concentration between thiols and disulfides existing in protein structures that are in turn equilibrated to the existing oxidant environment in vivo. Thus, serum protein thiol analyses are an in vivo estimate of the antioxidant status of an individual that is in turn regulated by DNA repair.
A stock solution of the colorimetric agent 5,5′-dithio-bis-(2-nitrobenzoic acid (DTNB), was prepared using: 9.5 mg/ml solid DTNB, 0.1 M K2HPO4, and 17.5 mM EDTA. pH was adjusted to 7.5 and then diluted to desired volume. Working DTNB solution was prepared by diluting DTNB stock solution 1:50 with saline. Solutions of L-cysteine were prepared and a standard curve was constructed desirably be in the 0-100 μM range. Stock solutions were diluted as required and absorbance was measured using 96-well flat-bottom microtiter plate. 50 μL-cysteine solution with 200 μl working DTNB solution was placed per well. […]
A DTNB blank (50 μl saline+200 μl DTNB) was made. Absorbance values were made at 412 nm with a microtiter plate scanner spectrophotometer. The average of every concentration was calculated and DTNB blank was subtracted from every value. Using a plot of concentration (x-axis) vs. absorbance (y-axis) by comparison with standard cysteine solutions the cysteine concentration was determined.
A saturated ammonium sulfate solution was prepared. […] Absorbance in microtiter plate scanner set at 412 nm was measured making sure that bubbles in the well are avoided.
The average was calculated for the DTNB blank and the saline blank. […]
Then the corrected serum value was subtracted from the corrected sample value. This value was the final serum thiol value expressed as absorbance at […]. […]
Altogether this was a 20 fold dilution (4×5=20). […] Thiols were hereby measured in nmoles/0.72 ml.

[2] = Molar ratio from neutralization of free organic acid with hydroxides; format: physicochemical; conditions: salt or chelate; listed as Quinic acid ammonium salt
Description: Determination of salts and chelates of some naturally occurring polyhydroxylated and polycarboxylated organic acids are provided in Table 1. Experimental molar ratios were calculated from neutralization to pH=7.5 of free protonated organic acid (H^+) with sodium, potassium or ammonium hydroxides.

O=C(O)[C@]1(O)C[C@@H](O)[C@@H](O)[C@H](O)C1 [Aqua Bimini™, quinic acid ammonium chelate]
quinic acid in blood serum samples ([1]; 1500 mg or 3000 mg daily oral, 6 samples day 10 to day 37): No quinic acid was found | quinic acid in human serum ([1]; efficacious dose 25 mg/kg in humans, HPLC detection limit 1 mg/kg): no quinic acid found | Increase in serum protein thiols (ratio) (serum protein thiols; 3000 mg/day for 36 days): 1.26 | Increase in serum protein thiols (ratio) (serum protein thiols; HL 1500 mg/day for 36 days): 1.22 | reduced thiols (—SH) in serum proteins (serum protein thiols; supplementation 1500 or 3000 mg/day, treatment and follow-up versus baseline): significant increase | Determination of structure existing in water [2]: chelate
